Results reported in publication PMC9377006, “Discovery of Desmuramylpeptide NOD2 Agonists with Single-Digit Nanomolar Potency” (ACS Medicinal Chemistry Letters, 2022).

Tested on: PBMCs
Assay: Cytokine release from peripheral blood mononuclear cells
Assay type: cell-based
Settings: human PBMCs
Description: Encouraged by the potent NOD2 activity of 40, we preliminarily evaluated its immunostimulatory potential in human primary peripheral blood mononuclear cells (PBMCs). Specifically, we first investigated the ability of 40 to induce cytokine production in PBMCs. While activation of NOD2 alone is sufficient to elicit cytokine responses, these responses are usually of low intensity. However, NOD2 agonists can act in synergy with ligands of other innate immune receptors and proinflammatory cytokines to induce considerably stronger responses. We were particularly intrigued by the synergistic interactions between NOD2, TLR4, and IFN-γ. The synergy between NOD2 agonists and TLR4 agonists in terms of cytokine secretion, including IFN-γ, is well-established.[29],[30] Similarly, IFN-γ has previously been reported to augment the MDP-mediated activation and cytokine production by dendritic cells and macrophages.[31],[32]
Figure 2 Synergistic effects of 40 with LPS and IFN-γ on induction of cytokine production from PBMCs. Cytokine concentrations were measured after 18 h of stimulation with NOD2 agonists (1 μM) in the presence or absence of LPS (10 ng/mL) and IFN-γ (200 U/mL) or the corresponding vehicle (0.1% DMSO; NT). Data are expressed as mean ± SEM of three independent experiments. Statistical significance was determined by one-way ANOVA followed by Bonferroni’s multiple-comparisons test; *, p < 0.05, **, p < 0.01, ***, p < 0.001 versus vehicle-treated control; ##, p < 0.01, ###, p < 0.001 versus 40 or LPS alone.
Figure S5. The effect of 40 on the production of cytokines from human PBMCs is NOD2 -dependent. PBMCs were pre-incubated for 1 h in the presence or absence of the NOD2 antagonist SG84 (10 µM), before the addition of 40 (1 µM). Cytokine concentrations in supernatants were measured after 18 h stimulation.
Data are expressed as mean s ± SEM of 3 independent experiments. Statistical significance was determined by one-way ANOVA followed by Bonferroni’s multiple comparisons test; **, p < 0.01, ***, p < 0.001. […]
4.9 Cytokine release from peripheral blood mononuclear cells
Peripheral blood mononuclear cells were seeded ( 500,000 cells/well) in 24-well plates in 500 µL growth medium and treated with MDP (1 µM), 2 (1 µM), or 40 (1 µM), in the presence or absence of LPS (10 ng/mL) or IFN-γ (200 U/mL), or the corresponding vehicle (0.1% DMSO). In some wells, PBMCs were pre-treated for 1 h with the NOD2 antagonist SG84 (10 µM), before the addition of 40 (1 µM). Cell-free supernatants were collected after 18 h of incubation (37 °C, 5% CO2) and stored at -80 °C until tested.
Cytokine production was determined with BD Cytometric Bead Array human inflammatory cytokines kit (BD Bioscience) on an Attune NxT flow cytometer (Thermo Fisher Scientific, Waltham, MA, USA). Standard curves were generated using recombinant cytokines contained in the kit. The data were analyzed using the FlowJo (Tree Star, Inc., Ashland, OR, USA) and Prism (GraphPad, San Diego, CA, USA) software.

Question: Which results are given for `CCOC(=O)CC[C@@H](NC(=O)[C@@H](NC(=O)CNC(=O)/C=C/c1ccc(OC(=O)CC23CC4CC(CC(C4)C2)C3)c(OC)c1)C(C)C)C(=O)OCC` [Compound 40]?
Answer: production of IL-1β, IL-6 and TNF-α in combination with IFN-γ (1 μM + IFN-γ 200 U/mL, 18 h): synergistically increased; production of IL-8 in combination with IFN-γ (1 μM + IFN-γ 200 U/mL, 18 h): no apparent effect; production of IL-1β, IL-6 and TNF-α in combination with LPS (1 μM + LPS 10 ng/mL, 18 h): superadditive manner; NOD2 dependence of cytokine production (40 1 µM, pretreatment with NOD2 antagonist SG84 10 µM): entirely NOD2-dependent; production of IL-1β, IL-6, IL-8 and TNF-α, stimulant alone (18 h, NOD2 agonists 1 μM, LPS 10 ng/mL, IFN-γ 200 U/mL): modest production
